Reference: US20250288571A1 (Nested Therapeutics, Inc., priority 2024, published 2025)

How the values were obtained:
HCT116 cells = experiment: HCT116 Cell Titer Glow assay (CTG); details: Homo sapiens, HCT-116, 72 h; for IC50: read-out: CTG IC50 (nM) Cell Line: HCT116.20
Procedure: (§5) HCT116 and IPC298 Cell Titer Glow Assay (CTG)
(§6) HCT116 cells and IPC298 cells were diluted with culture medium to the desired density 500 cells/well and 40 μL of cell suspension were added into each well of 384-well cell culture plate. […] The plates were covered and stored at room temperature for 30 minutes without shaking and then the plates were transferred into a 37° C. 5% CO2 incubator overnight.
(§7) A 10 mM solution in dimethyl sulfoxide (DMSO) was prepared for each test compound. A 3 fold, 10-point dilution was prepared from the stock solution. 40 nl of each solution in 100% DMSO was added to the 384-well plate and diluted to a final 0.1% DMSO final concentration. The plates were then incubated for 72 hours (for both cell lines) at 37° C.
(§8) CellTiter-Glo® 2.0 Reagent (Promega, G9242) was removed from the refrigerator and equilibrated at room temperature (23° C.) for 60 minutes. The plates were then removed from the incubator and allowed to equilibrate to room temperature. 30 μL CellTiter-Glo® 2.0 Reagent were added to the assay plates, and spun 1 min/1000 rpm. The plates were allowed to stand for about 20 minutes before being read on Envision using a standard luminescence readout. DMSO was employed as negative control (High control, HC) and 1 uM Staurosporine was employed as positive control (Low control, LC).
(§9) The percent (%) inhibition at each concentration of compound was calculated based on the signal in the negative and positive control wells contained within each assay plate.

pERK Thr202/Tyr204 [1] = experiment: pERK HTRF detection of pERK Thr202/Tyr204, HCT116 cells; format: cell-based; details: Homo sapiens, HCT-116, 2 h compound
Procedure: (§1) pERK: Detection of pERK Thr202/Tyr204
(§2) A549 cultured in F-12K/10% FBS were seeded at 10000 cells/well, and HCT116 cultured in McCoy's 5A/10% FBS were seeded at 15000 cells/well cells into Corning 384-well plates, respectively. Cells were incubated overnight in a TC incubator. Compounds were serially diluted and added to cells for 2 h in a TC incubator. Cells were then lysed according to manufacture protocol (Cisbio CAT #: 64AERPEG). Cell lysate was mixed with phospho-ERK (Thr202/Tyr204) antibody solution at 5:1 (v:v). Lysate and antibody mixture were incubated overnight at room temperature. HTRF signal was read at two different wavelengths (665 nm and 620 nm) on a compatible HTRF reader.

pMEK [2] = experiment: pMEK AlphaLISA (MEK1 pS218/222), A549 cells, EGF stimulated; format: cell-based; details: Homo sapiens, 2 h compound, EGF 30 ng/ml 15 min
Procedure: (§3) Determination of pMEK IC50s
(§4) A549 cells were cultured in F12K/10% FBS media (ATCC CAT #21127022) and were seeded at 10000 cells/well and HCT116 cells were cultured in McCoy's 5A/10% FBS media (Gibco Cat #30-2007) were seeded at 15000 cells/well in 384 microplates (Corning CAT #3765). Cells were incubated overnight in a TC incubator. Compounds were serially diluted and added to cells for 2 h in a TC incubator. At the end of the 2 h EGF (R&D Systems 236-EG-200) was added at a final EGF concentration of 30 ng/ml and incubated for 15 minutes at 37° C. in a TC incubator. AlphaLisa (Perkin Elmer) was performed according to manufacturer's instructions (Perkin Elmer CAT #ALPHA.SF ULTRA MEK1 PS218/222). The percent (%) inhibition at each concentration of compound is calculated based on and relative to the AlphaLISA signal in the HPE and ZPE control wells contained within each assay plate. The ZPE control wells contain cells and DMSO as 0% inhibition, and the HPE control wells only contain cells and control compound (Sellekchem Staurosporin CAT #S1421) as 100% inhibition.

pMEK [3] = experiment: pMEK AlphaLISA (MEK1 pS218/222), HCT116 cells, EGF stimulated; format: cell-based; details: Homo sapiens, HCT-116, 2 h compound, EGF 30 ng/ml 15 min
Procedure: as §3, §4

pERK Thr202/Tyr204 [4] = experiment: pERK HTRF detection of pERK Thr202/Tyr204, A549 cells; format: cell-based; details: Homo sapiens, 2 h compound
Procedure: as §1, §2

IPC298 cells = experiment: IPC298 Cell Titer Glow assay (CTG); details: Homo sapiens, IPC-298, 72 h, read-out: CTG IC50 (nM) Cell Line: IPC298.2
Procedure: as §5, §6, §7, §8, §9

SMILES	IC50 (HCT116 cells) [nM]	IC50 (pERK Thr202/Tyr204 [1]) [nM]	IC50 (pMEK [2]) [nM]	IC50 (pMEK [3]) [nM]	IC50 (pERK Thr202/Tyr204 [4]) [nM]	IC50 (IPC298 cells) [nM]	viability at 1000 µM (HCT116 cells; read-out: CTG % cell viability 1000 uM HCT116.20, HCT116 cells, 72 hours, 1000 uM, percent cells remaining after treatment) [%]	IC50 (pERK Thr202/Tyr204 [1]; numeric value) [nM]
CNS(=O)(=O)Nc1nccc(Cc2cncc(Nc3ccc(Cl)cc3F)c2C)c1F [Example 6, N-(4-chloro-2-fluorophenyl)-5-({3-fluoro-2-[(methylsulfamoyl)amino]pyridin-4-yl}methyl)-4-methylpyridin-3-amine]	10 to 100	< 10	< 10	< 10	< 10			
COC(=O)Nc1nccc(Cc2cncc(Nc3ccc(Br)cc3F)c2C)c1F [Example 4, methyl N-[4-({5-[(4-bromo-2-fluorophenyl)amino]-4-methylpyridin-3-yl}methyl)-3-fluoropyridin-2-yl]carbamate]		10 to 100	10 to 100	10 to 100	10 to 100			
CCc1ccc(Nc2cncc(Cc3ccnc(NS(=O)(=O)NC)c3F)c2C)c(F)c1 [Example 10, N-(4-ethyl-2-fluorophenyl)-5-({3-fluoro-2-[(methylsulfamoyl)amino]pyridin-4-yl}methyl)-4-methylpyridin-3-amine]	< 10	< 10	< 10	< 10	< 10	< 10		
CNS(=O)(=O)Nc1ccc(Cc2cncc(Nc3ccc(Br)cc3F)c2C)cc1 [Example 5, N-(4-bromo-2-fluorophenyl)-4-methyl-5-({4-[(methylsulfamoyl)amino]phenyl}methyl)pyridin-3-amine]	10 to 100	< 10	< 10	< 10	< 10	< 10		
CC(=O)Nc1nccc(Cc2cncc(Nc3ccc(Br)cc3F)c2C)c1F [Example 3, N-[4-({5-[(4-bromo-2-fluorophenyl)amino]-4-methylpyridin-3-yl}methyl)-3-fluoropyridin-2-yl]acetamide]		< 10	10 to 100	10 to 100	< 10			
CNC(=O)Nc1nccc(Cc2cncc(Nc3ccc(Br)cc3F)c2C)c1F [Example 12, 1-[4-({5-[(4-bromo-2-fluorophenyl)amino]-4-methylpyridin-3-yl}methyl)-3-fluoropyridin-2-yl]-3-methylurea]		< 10	< 10	< 10	< 10			
CNS(=O)(=O)Nc1nccc(Cc2cncc(Nc3ccc(Br)cc3F)c2C)c1F [Example 1, N-(4-bromo-2-fluorophenyl)-5-({3-fluoro-2-[(methylsulfamoyl)amino]pyridin-4-yl}methyl)-4-methylpyridin-3-amine]	< 10	< 10	< 10	< 10	< 10	< 10		
CNS(=O)(=O)Nc1nccc(Cc2cncc(Nc3ccc(C#N)cc3F)c2C)c1F [Example 11, 3-fluoro-4-{[5-({3-fluoro-2-[(methylsulfamoyl)amino]pyridin-4-yl}methyl)-4-methylpyridin-3-yl]amino}benzonitrile]		< 10	10 to 100	< 10	< 10	10 to 100	31.8	
Cc1c(Cc2ccnc(S(C)(=O)=O)c2F)cncc1Nc1ccc(Br)cc1F [Example 9, N-(4-bromo-2-fluorophenyl)-5-[(3-fluoro-2-methanesulfonylpyridin-4-yl)methyl]-4-methylpyridin-3-amine]		< 10	< 10	10 to 100	< 10			
CNS(=O)(=O)Nc1nccc(Cc2cncc(Nc3ccc(Cl)cc3F)c2OC)c1F [Example 37, N-(4-chloro-2-fluorophenyl)-5-({3-fluoro-2-[(methylsulfamoyl)amino]pyridin-4-yl}methyl)-4-methoxypyridin-3-amine]	10 to 100		< 10	< 10		< 10		0.362
